Activity calls are given as the source filed them.
Legend:
Aspergillus niger = assay: Antifungal activity against Aspergillus niger at 50 ug/ml after 72 hrs by disc diffusion method; type: functional, organism-based
Penicillium = assay: Antifungal activity against Penicillium at 50 ug/ml after 72 hrs by disc diffusion method; type: functional, organism-based
Candida albicans = assay: Antifungal activity against Candida albicans at 250 ug/ml after 72 hrs by disc diffusion method; type: functional; details: for zone of inhibition at 250 µg/mL: read-out: IZ
Enterococcus faecalis = assay: Antibacterial activity against Enterococcus faecalis at 250 ug/ml after 24 to 45 hrs by disc diffusion method; type: functional; details: for zone of inhibition at 250 µg/mL: read-out: IZ
Proteus vulgaris = assay: Antibacterial activity against Proteus vulgaris at 250 ug/ml after 24 to 45 hrs by disc diffusion method; type: functional; details: for zone of inhibition at 250 µg/mL: read-out: IZ
Klebsiella pneumoniae = assay: Antibacterial activity against Klebsiella pneumoniae at 250 ug/ml after 24 to 45 hrs by disc diffusion method; type: functional; details: read-out: IZ
Pseudomonas = assay: Antibacterial activity against Pseudomonas at 250 ug/ml after 24 to 45 hrs by disc diffusion method; type: functional; details: read-out: IZ
Staphylococcus aureus = assay: Antibacterial activity against Staphylococcus aureus at 250 ug/ml after 24 to 45 hrs by disc diffusion method; type: functional; details: read-out: IZ
Escherichia coli = assay: Antibacterial activity against Escherichia coli at 250 ug/ml after 24 to 45 hrs by disc diffusion method; type: functional; details: read-out: IZ
Achaea janata = assay: Antifeedant activity against fourth instar larvae of Achaea janata fed on compound treated castor leaves at 200 ppm after 24 hrs by leaf disc method; type: functional, organism-based

| SMILES | Activity (Aspergillus niger) | Activity (Penicillium) | zone of inhibition at 250 µg/mL (Candida albicans) [mm] | zone of inhibition at 250 µg/mL (Enterococcus faecalis) [mm] | zone of inhibition at 250 µg/mL (Proteus vulgaris) [mm] | zone of inhibition at 250 µg/mL (Klebsiella pneumoniae) [mm] | zone of inhibition at 250 µg/mL (Pseudomonas) [mm] | zone of inhibition at 250 µg/mL (Staphylococcus aureus) [mm] | zone of inhibition at 250 µg/mL (Escherichia coli) [mm] | Activity (Achaea janata) | Activity (Enterococcus faecalis) | Activity (Candida albicans) | Activity (Proteus vulgaris) |
| --- | --- | --- | --- | --- | --- | --- | --- | --- | --- | --- | --- | --- | --- |
| Cc1cc2c(cc1Br)N1Cc3cc(C)c(Br)cc3N(C2)C1 | inactive | inactive | 13 | 13 | 8 | 8 | 8 | 13 | 8 | – | – | – | – |
| Cc1cc2c(cc1Cl)N1Cc3cc(C)c(Cl)cc3N(C2)C1 | inactive | inactive | 13 | 13 | 8 | 13 | 13 | 8 | 8 | Active | – | – | – |
| Fc1ccc2c(c1)N1Cc3ccc(F)cc3N(C2)C1 | inactive | inactive | 8 | – | 13 | 13 | 8 | 13 | 13 | Active | inactive | – | – |
| Cc1cc(Cl)cc2c1N1Cc3cc(Cl)cc(C)c3N(C2)C1 | inactive | Active | 8 | 13 | 8 | 13 | 13 | 8 | 8 | Active | – | – | – |
| COc1ccc2c(c1Cl)CN1CN2Cc2c1ccc(OC)c2Cl | inactive | Active | 20 | 13 | 20 | 20 | 20 | 20 | 20 | Active | – | – | – |
| Cc1cc(C)c2c(c1)CN1CN2Cc2cc(C)cc(C)c21 | inactive | inactive | 13 | 8 | 13 | 13 | 8 | 13 | 13 | – | – | – | – |
| CCOC(=O)c1ccc2c(c1)CN1CN2Cc2cc(C(=O)OCC)ccc21 | inactive | inactive | – | 20 | 13 | 13 | 20 | 20 | 20 | – | – | inactive | – |
| Cc1cc(C#N)c2c(c1)CN1CN2Cc2cc(C)cc(C#N)c21 | inactive | inactive | 13 | – | 8 | 8 | 8 | 8 | 13 | – | inactive | – | – |
| Cc1cc(Br)c2c(c1)CN1CN2Cc2cc(C)cc(Br)c21 | inactive | inactive | 8 | – | 13 | 13 | 13 | 13 | 13 | – | inactive | – | – |
| Cc1ccc2c(c1C)N1Cc3ccc(C)c(C)c3N(C2)C1 | inactive | Active | 8 | 8 | – | 13 | 8 | 8 | 13 | – | – | – | inactive |
| N#Cc1ccc2c(c1)CN1CN2Cc2cc(C#N)ccc21 | inactive | inactive | 13 | – | 13 | 13 | 13 | 13 | 13 | – | inactive | – | – |
| COc1cc(C)c2c(c1)CN1CN2Cc2cc(OC)cc(C)c21 | inactive | Active | 20 | 13 | 8 | 20 | 20 | 20 | 20 | – | – | – | – |
| Cc1ccc2c(c1O)CN1CN2Cc2c1ccc(C)c2O | inactive | inactive | 13 | 13 | 8 | 8 | 8 | 13 | 8 | – | – | – | – |
| Cc1cccc2c1N1Cc3cccc(C)c3N(C2)C1 | inactive | inactive | 13 | 13 | 8 | 13 | 13 | 8 | 8 | – | – | – | – |
| Cc1cc([N+](=O)[O-])cc2c1N1Cc3cc([N+](=O)[O-])cc(C)c3N(C2)C1 | inactive | inactive | 13 | 8 | 13 | 13 | 13 | 13 | 13 | – | – | – | – |
| CC(=O)c1cccc2c1N1Cc3cccc(C(C)=O)c3N(C2)C1 | Active | inactive | 20 | – | 8 | 8 | 8 | 13 | 8 | – | inactive | – | – |
| c1ccc2c(c1)CN1CN2Cc2ccccc21 | inactive | inactive | – | – | 8 | 8 | 8 | 13 | 8 | – | inactive | inactive | – |
| Nc1ccc2c(c1)CN1CN2Cc2cc(N)ccc21 | inactive | inactive | 13 | – | 13 | 13 | 13 | 13 | 13 | – | inactive | – | – |
| Cc1ccc2c(c1)CN1CN2Cc2cc(C)ccc21 | inactive | inactive | 13 | – | 8 | 8 | 8 | 13 | 8 | – | inactive | – | – |
| O=[N+]([O-])c1ccc2c(c1)CN1CN2Cc2cc([N+](=O)[O-])ccc21 | inactive | inactive | – | 20 | 13 | 13 | 13 | 13 | 20 | – | – | inactive | – |
| CCOc1ccc2c(c1)CN1CN2Cc2cc(OCC)ccc21 | Active | Active | 8 | – | 13 | 13 | 20 | 20 | 20 | – | inactive | – | – |
| Cc1cc(N)c2c(c1)CN1CN2Cc2cc(C)cc(N)c21 | inactive | Active | 13 | – | 13 | 13 | 13 | 13 | 13 | – | inactive | – | – |
| Cc1cc(N)cc2c1N1Cc3cc(N)cc(C)c3N(C2)C1 | inactive | inactive | 13 | 8 | 13 | 13 | 13 | 13 | 13 | – | – | – | – |
| CCCOC(=O)c1ccc2c(c1)CN1CN2Cc2cc(C(=O)OCCC)ccc21 | Active | Active | 13 | 20 | 13 | 20 | 20 | 20 | 13 | – | – | – | – |
| COc1ccc2c(c1)CN1CN2Cc2cc(OC)ccc21 | inactive | Active | 20 | 20 | 13 | 13 | 20 | 20 | 20 | – | – | – | – |

Reference: ChEMBL document CHEMBL3046842, “Antimicrobial and insect antifeedant activities of some Trogers bases” (2012)
